According to US10035790B2, “RORγ modulators” (BRISTOL-MYERS SQUIBB COMPANY, priority 2012, dated 2018):

biological target: T1, ligand binding domain of human RORγ (A262-S507) (Homo sapiens, UniProt P51449); experiment: General RORγ SPA binding assay (competition with [3H]25-hydroxycholesterol); settings: RORγ SPA binding assay, inhibition of [3H]25-hydroxycholesterol binding; read-out: IC50
T1 construct: made in house; host or cells: E. coli
T1 sequence (P51449 262-507): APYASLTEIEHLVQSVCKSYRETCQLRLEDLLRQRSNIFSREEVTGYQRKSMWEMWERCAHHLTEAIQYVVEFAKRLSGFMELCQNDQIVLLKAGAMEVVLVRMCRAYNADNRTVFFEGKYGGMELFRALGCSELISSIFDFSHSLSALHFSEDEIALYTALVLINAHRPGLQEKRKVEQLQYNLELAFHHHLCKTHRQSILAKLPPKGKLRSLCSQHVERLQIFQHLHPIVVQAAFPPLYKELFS
Method in brief: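 Scintillation counts from copper His-tag SPA beads (4 mg/mL, 30 min) gave percent inhibition of radioligand binding, from which IC50 values are derived. The E. coli-expressed His-tagged domain (50 nM) is first exposed to compound for 15 min at room temperature in PBS containing 0.5% fatty acid free BSA.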

Row | Structure (SMILES) | IC50 [nM]
1 | C/C(=N\Oc1ccnc(C(F)(F)F)c1)c1cnc(C)nc1C1CCN(C(=O)Cc2c(F)cccc2F)CC1 [Compound B14, (E)-2-(2,6-difluorophenyl)-1-(4-(2-methyl-5-(1-(((2-(trifluoromethyl)pyridin-4-yl)oxy)imino)ethyl)pyrimidin-4-yl)piperidin-1-yl)ethanone] | 4.8
2 | C/C(=N\Oc1ccnc(Cl)c1)c1cnc(C)nc1C1CCN(C(=O)Cc2c(F)cccc2F)CC1 [Compound B15, (E)-1-(4-(5-(1-(((2-chloropyridin-4-yl)oxy)imino)ethyl)-2-methylpyrimidin-4-yl)piperidin-1-yl)-2-(2,6-difluorophenyl)ethanone] | 5.1
3 | C/C(=N\Oc1cccc(F)c1)c1cnc(C)nc1C1CCN(C(=O)Cc2c(F)cccc2F)CC1 [Compound B16, (E)-2-(2,6-difluorophenyl)-1-(4-(5-(1-((3-fluorophenoxy)imino)ethyl)-2-methylpyrimidin-4-yl)piperidin-1-yl)ethanone] | 5.9
4 | C/C(=N\Oc1cc(F)ccc1C)c1cnc(C)nc1C1CCN(C(=O)Cc2c(F)cccc2F)CC1 [Compound B17, (E)-2-(2,6-difluorophenyl)-1-(4-(5-(1-((5-fluoro-2-methylphenoxy)imino)ethyl)-2-methylpyrimidin-4-yl)piperidin-1-yl)ethanone] | 9.3
5 | C/C(=N\Oc1cc(C)ccc1C)c1cnc(C)nc1C1CCN(C(=O)Cc2c(F)cccc2F)CC1 [Compound B18, (E)-2-(2,6-difluorophenyl)-1-(4-(5-(1-((2,5-dimethylphenoxy)imino)ethyl)-2-methylpyrimidin-4-yl)piperidin-1-yl)ethanone] | 11.2
6 | C/C(=N\Oc1cccc(C(F)(F)F)n1)c1cnc(C)nc1C1CCN(C(=O)Cc2c(F)cccc2F)CC1 [Compound B19, (E)-2-(2,6-difluorophenyl)-1-(4-(2-methyl-5-(1-(((6-(trifluoromethyl)pyridin-2-yl)oxy)imino)ethyl)pyrimidin-4-yl)piperidin-1-yl)ethanone] | 13.9
7 | C/C(=N\Oc1ccnc(C(F)(F)F)n1)c1cnc(C)nc1C1CCN(C(=O)Cc2c(F)cccc2F)CC1 [Compound B20, (E)-2-(2,6-difluorophenyl)-1-(4-(2-methyl-5-(1-(((2-(trifluoromethyl)pyrimidin-4-yl)oxy)imino)ethyl)pyrimidin-4-yl)piperidin-1-yl)ethanone] | 15.8
8 | COc1cccc(O/N=C(\C)c2cnc(C)nc2C2CCN(C(=O)Cc3c(F)cccc3F)CC2)c1 [Compound B21, (E)-2-(2,6-difluorophenyl)-1-(4-(5-(1-((3-methoxyphenoxy)imino)ethyl)-2-methylpyrimidin-4-yl)piperidin-1-yl)ethanone] | 23.7
9 | C/C(=N\Oc1cccc(C)c1C)c1cnc(C)nc1C1CCN(C(=O)Cc2c(F)cccc2F)CC1 [Compound B22, (E)-2-(2,6-difluorophenyl)-1-(4-(5-(1-((2,3-dimethylphenoxy)imino)ethyl)-2-methylpyrimidin-4-yl)piperidin-1-yl)ethanone] | 84
10 | Cc1ncc(/C(CO)=N/Oc2ccnc(C(F)(F)F)c2)c(C2CCN(C(=O)Cc3c(F)cccc3F)CC2)n1 [Compound B23, (1Z)-1-(4-{1-[(2,6-Difluorophenyl)acetyl]piperidin-4-yl}-2-methylpyrimidin-5-yl)-2-hydroxyethanone O-[2-(trifluoromethyl)pyridin-4-yl]oxime] | 8.4
11 | Cc1ncc(C(CF)=NOc2ccnc(C(F)(F)F)c2)c(C2CCN(C(=O)Cc3c(F)cccc3F)CC2)n1 [Compound B24, (1Z)-1-(4-{1-[(2,6-Difluorophenyl)acetyl]piperidin-4-yl}-2-methylpyrimidin-5-yl)-2-fluoroethanone 0-[2-(trifluoromethyl)pyridin-4-yl]oxime] | 8.7
12 | Cc1ncc(/C(CO)=N/Oc2ccnc(C(F)(F)F)n2)c(C2CCN(C(=O)Cc3c(F)cccc3F)CC2)n1 [Compound B25, (Z)-2-(2,6-difluorophenyl)-1-(4-(5-(2-hydroxy-1-(((2-(trifluoromethyl)pyrimidin-4-yl)oxy)imino)ethyl)-2-methylpyrimidin-4-yl)piperidin-1-yl)ethanone] | 11.2

The next lines start with the values.

Row | IC50 [nM] | Structure (SMILES)
13 | 95 | Cc1ncc(/C(CO)=N\Oc2ccnc(C(F)(F)F)n2)c(C2CCN(C(=O)Cc3c(F)cccc3F)CC2)n1 [Compound B26, (E)-2-(2,6-difluorophenyl)-1-(4-(5-(2-hydroxy-1-(((2-(trifluoromethyl)pyrimidin-4-yl)oxy)imino)ethyl)-2-methylpyrimidin-4-yl)piperidin-1-yl)ethanone]
14 | 35.8 | Cc1ncc(/C(CF)=N/Oc2ccnc(C(F)(F)F)n2)c(C2CCN(C(=O)Cc3c(F)cccc3F)CC2)n1 [Compound B27, (Z)-2-(2,6-difluorophenyl)-1-(4-(5-(2-fluoro-1-(((2-(trifluoromethyl)pyrimidin-4-yl)oxy)imino)ethyl)-2-methylpyrimidin-4-yl)piperidin-1-yl)ethanone]
15 | 696 | Cc1ncc(/C(CO)=N/Oc2cccc(C(F)(F)F)c2)c(C2CCN(C(=O)Cc3c(F)cccc3F)CC2)n1 [Compound B28, (Z)-2-(2,6-difluorophenyl)-1-(4-(5-(2-hydroxy-1-((3-(trifluoromethyl)phenoxy)imino)ethyl)-2-methylpyrimidin-4-yl)piperidin-1-yl)ethanone]
16 | 9.7 | Cc1ncc(/C=N/Oc2cccc(C(F)(F)F)c2)c(C2CCN(C(=O)Cc3c(F)cccc3F)CC2)n1 [Compound B30, (E)-4-(1-(2-(2,6-Difluorophenyl)acetyl)piperidin-4-yl)-2-methylpyrimidine-5-carbaldehyde O-3-(trifluoromethyl)phenyl oxime]
17 | 3.4 | Cc1nc(C)c(C=NOc2cccc(C(F)(F)F)c2)c(C2CCN(C(=O)Cc3c(F)cccc3F)CC2)n1 [Compound B31, 4-{1-[(2,6-Difluorophenyl)acetyl]piperidin-4-yl}-2,6-dimethylpyrimidine-5-carbaldehyde O-[3-(trifluoromethyl)phenyl]oxime]
18 | 15.3 | Cc1ncc(/C(=N/Oc2ccnc(C(F)(F)F)c2)C(F)F)c(C2CCN(C(=O)Cc3c(F)cccc3F)CC2)n1 [Compound B32, (1Z)-1-(4-{1-[(2,6-Difluorophenyl)acetyl]piperidin-4-yl}-2-methylpyrimidin-5-yl)-2,2-difluoroethanone O-[2-(trifluoromethyl)pyridin-4-yl]oxime]
19 | 36.7 | Cc1ncc(/C=N/Oc2cccc(C(F)(F)F)c2)c(C2CCN(C(=O)Cc3c(F)cccc3F)CC2(F)F)n1 (stereo not drawn) [Compound B33, (E)-4-(1-(2-(2,6-Difluorophenyl)acetyl)-3,3-difluoropiperidin-4-yl)-2-methylpyrimidine-5-carbaldehyde O-3-(trifluoromethyl)phenyl oxime]
20 | 12.5 | C/C(=N\Oc1ccnc(C(F)(F)F)c1)c1cnc(C)nc1C1CCN(C(=O)Cc2c(F)cccc2F)CC1(F)F (stereo not drawn) [Compound B34, (E)-1-(3,3-Difluoro-4-(2-methyl-5-(1-(2-(trifluoromethyl)pyridin-4-yloxyimino)ethyl)pyrimidin-4-yl)piperidin-1-yl)-2-(2,6-difluorophenyl)ethanone]
21 | 14.2 | Cc1ncc(/C(CF)=N/Oc2ccnc(C(F)(F)F)n2)c(C2CCN(C(=O)Cc3c(F)cccc3F)CC2(F)F)n1 (stereo not drawn) [Compound B35, (Z)-1-(3,3-Difluoro-4-(5-(2-fluoro-1-(2-(trifluoromethyl)pyrimidin-4-yloxyimino)ethyl)-2-methylpyrimidin-4-yl)piperidin-1-yl)-2-(2,6-difluorophenyl)ethanone]
22 | 158 | C/C(=N\Oc1ccnc(C(F)(F)F)n1)c1cnc(C)nc1C1CCN(C(=O)Nc2c(F)cccc2F)CC1 [Compound B36, N-(2,6-Difluorophenyl)-4-{2-methyl-5-[(1E)-N-{[2-(trifluoromethyl)pyrimidin-4-yl]oxy}ethanimidoyl]pyrimidin-4-yl}piperidine-1-carboxamide]
23 | 67.6 | C/C(=N\Oc1ccnc(C(F)(F)F)c1)c1cnc(C)nc1C1CCN(C(=O)Nc2c(F)cccc2F)CC1 [Compound B37, N-(2,6-Difluorophenyl)-4-{2-methyl-5-[(1E)-N-{[2-(trifluoromethyl)pyridin-4-yl]oxy}ethanimidoyl]pyrimidin-4-yl}piperidine-1-carboxamide]
24 | 169 | C/C(=N\Oc1cccc(C(F)(F)F)n1)c1cnc(C)nc1C1CCN(C(=O)Nc2c(F)cccc2F)CC1 [Compound B38, N-(2,6-Difluorophenyl)-4-{2-methyl-5-[(1E)-N-{[6-(trifluoromethyl)pyridin-2-yl]oxy}ethanimidoyl]pyrimidin-4-yl}piperidine-1-carboxamide]
25 | 93.3 | C/C(=N\Oc1ccnc(C(F)(F)F)n1)c1cnc(C)nc1C1CCN(C(=O)Nc2c(F)cccc2C(F)(F)F)CC1 [Compound B39, N-[2-Fluoro-6-(trifluoromethyl)phenyl]-4-{2-methyl-5-[(1E)-N-{[2-(trifluoromethyl)pyrimidin-4-yl]oxy}ethanimidoyl]pyrimidin-4-yl}piperidine-1-carboxamide]
26 | 21.4 | C/C(=N\Oc1cc(Cl)nc(C(F)(F)F)c1)c1cnc(C)nc1C1CCN(C(=O)Nc2c(F)cccc2F)CC1 [Compound B40, 4-{5-[(1E)-N-{[2-chloro-6-(trifluoromethyl)pyridin-4-yl]oxy}ethanimidoyl]-2-methylpyrimidin-4-yl}-N-(2,6-difluorophenyl)piperidine-1-carboxamide]
27 | 12.6 | C/C(=N/Oc1cc(Cl)nc(C(F)(F)F)c1)c1cnc(C)nc1C1CCN(C(=O)Nc2c(F)cccc2F)CC1 [Compound B41, 4-{5-[(1Z)—N-{[2-chloro-6-(trifluoromethyl)pyridin-4-yl]oxy}ethanimidoyl]-2-methylpyrimidin-4-yl}-N-(2,6-difluorophenyl)piperidine-1-carboxamide]
